Results as given in ChEMBL document CHEMBL3507680, “University of Dundee, Gates Library screen for HepG2 cell viability”.

experiment: Human HepG2 cell viability assay in 384 well format; type: toxicity, cell-based; design: dose 125 nL, time 70.5 hour; cytotoxicity at 70.5 h: concentration not given beside the values; details: HepG2 cells, read-out: Inhibition

Point of comparison: `CNC(=O)CN1CCO[C@H]2CN(CC3CC3)C[C@H]21`, cytotoxicity at 70.5 h -2.3%. Against it:
- O=C(CC1CC1)N[C@@H]1CN(Cc2cccnc2)C[C@@H]2CCCO[C@@H]21 — lower, -4.07%
- COC(=O)NCCCC(=O)NCC1(c2cccc(Cl)c2)CC1 — higher, 20.6%
- CCOCCOC(C)C(=O)Nc1ccc2ccn(CC(=O)NC)c2c1 (configuration not stated) — lower, -13.2%
- Cc1nc(O)cc(CCNc2nc(N(C)C)nc(C)c2C)n1 — higher, 22%
- Cc1ccc(Oc2cc(F)ccc2O[C@@H]2CCC[C@@H](N)[C@H]2O)cc1 — higher, 16%
- CC(=O)N1CCCC1c1ccc(-c2c(C)noc2C)cn1 (configuration not stated) — lower, -9.29%
- CC(O)(CNC(=O)c1cccnc1-n1cccn1)c1ccco1 (configuration not stated) — lower, -4.51%
- Cc1nc2c(C)cccc2cc1C(=O)N1CCC2(CCNCC2)CC1 — lower, -5.65%
- CC(C)C1SCC(=O)Nc2c1c(O)nn2C1CCCCC1 (configuration not stated) — lower, -23.1%
- CCc1nc2c(c(NCc3cc(-c4cccnc4)no3)n1)CCNCC2 — higher, 7.07%
- Cn1ccc(C(=O)N2CCCC(c3cc4cccnc4c(O)n3)C2)n1 (configuration not stated) — lower, -9.08%
- COCCOCC(=O)N1CCC(O)(c2ccc3nc(C)ccc3c2)CC1 — lower, -5.95%
- CN1CCN([C@H]2CCN(C(=O)c3cc(Cl)cn3C)C[C@H]2CCCO)CC1 — lower, -14.3%
- CC(C)(C)c1ncc(C(=O)NCCNC(=O)Cc2ccccc2)s1 — lower, -5.68%
- FC(F)(F)Cn1ccnc1CN1CCOC(Cn2cccn2)C1 (configuration not stated) — lower, -2.61%
- CC(Cn1cccn1)NCc1cccc(C#N)c1 (configuration not stated) — lower, -3.1%
- COc1cccc(-n2nnc(C(=O)N3CCNC(=O)C3)c2C)c1 — higher, 28%
- COCCN1CC[C@@H](OC)[C@@H]1Cc1ccccc1 — higher, 15.6%
- CC(=O)NCCc1ccc(S(=O)(=O)Nc2cc(F)ccc2C)s1 — higher, 3.63%
- CC(NC(N)=O)C(=O)N1CCCN(Cc2nccn2C(C)C)CC1 (configuration not stated) — lower, -11.9%
- CCN(CC)C1CCN(C(=O)c2cc3cc(C)cc(C)c3nc2C)CC1 — lower, -2.42%
- CCN(CC)CC[C@H]1CN(C(=O)CC(C)(C)C)CC[C@H]1CC(=O)O — lower, -4.24%
- O=C(NCCOc1ccc(Cl)cn1)Nc1cccnc1 — higher, -0.774%
- CNC(=O)NC(=O)C(C)Nc1ccccc1OCCOC (configuration not stated) — lower, -10.8%
- COc1cc(NC(=O)CCn2nc(-c3cccs3)oc2=O)cc(OC)c1 — lower, -7.55%
- Cc1csc(C(=O)N2CCC3(CC(N(C)c4ccncn4)C3)C2)c1 (configuration not stated) — lower, -5.37%
- CC(C)CCNC(=O)c1ccc(-n2cnc3ccccc3c2=O)cc1 — lower, -27.3%
- CNC(=O)c1cccc(CNC2CCCSc3ccccc32)c1 (configuration not stated) — lower, -5.82%
- O=c1cc(Cn2ccnc2)nc2n1CCCN(Cc1ccsc1)C2 — lower, -19.5%
- O=C(CCNC(=O)NC1CC1)NCc1ccccc1 — lower, -6.54%
- CNCC(=O)N1CC(c2cc(Nc3ncccn3)nc(C)n2)C1 — lower, -20.3%
- CC(C)c1nc2n(n1)CC(NCCc1cccs1)CC2 (configuration not stated) — lower, -5.42%
- CCOC(=O)CCCc1ccc2c(c1)CC(=O)N2 — lower, -18.2%
- NCCCC(=O)N1CCC2(CC1)CN(C(=O)c1ccc(Cl)cc1)CCO2 — lower, -12.4%
- CCC[C@@H]1CN(Cc2ccccc2OC(F)(F)F)C[C@H]1NC(C)=O — lower, -20%
- Cc1cc(C(=O)NCC(C)C)nn1C — lower, -5.81%
- Cn1ccc(C(=O)NCc2ccc(CN3CCCC3)cc2)cc1=O — lower, -12.4%
- CCC(CO)N(Cc1ccsc1)CC1CC1 (configuration not stated) — lower, -4.03%
- CN(Cc1ccco1)Cc1ccccc1CNC(=O)c1ccncc1 — lower, -8%
- Cc1cccc(CN2C(=O)CCC23CCN(c2ncc(F)cn2)CC3)n1 — lower, -5.55%
- CCc1nc2c(c(N3CCOCC3)n1)CCN(C(=O)N1CCCC1)CC2 — lower, -6.31%
- CCOCCCC(=O)NCc1cn2cc(Br)ccc2n1 — lower, -3.96%
- O=C(c1cccc(F)c1)N1CCCN(Cc2cscn2)CC1 — higher, 21.5%
- Cc1nc(CN(C)C(=O)c2cccc(CC3CCNCC3)c2)no1 — higher, 26.4%
- CC(O)CN1CCN(CCOCC(F)(F)F)CC1 (configuration not stated) — lower, -7.92%
- Cc1csc2c(=O)n(CCSc3cnn[nH]3)cnc12 — lower, -7.83%
- Cc1cc(C(=O)N2C[C@H](c3ccccc3)[C@@H](N)C2)c2ccc(F)cc2n1 — lower, -12.1%
- CCCc1noc(CN2CCCCC2Cn2cncn2)n1 (configuration not stated) — lower, -7.74%
- Cc1ccc(CNCC2CCc3nnc(C(C)C)n3C2)s1 (configuration not stated) — lower, -6.69%
- Cc1ccc(CN2CC[C@@H](O)[C@@H]2Cc2cnn(C)c2)o1 — lower, -10.4%
- CN1CCN(C(=O)c2cc(NC(=O)c3ccccc3)n(C)n2)CC1 — lower, -12.7%
- CS(=O)(=O)NCCNc1ncnc2cccc(F)c12 — lower, -6.37%
- O=C(C1CC1)N1CCC(C(=O)N2CCC(c3ccc(F)cc3)C2)CC1 (configuration not stated) — higher, 8.64%
- Brc1ccccc1-c1nnc(CNCCn2cccn2)o1 — higher, 12.2%
- O=C(NCc1ccccn1)C1=NN(c2ccccc2)C(=O)CN1 — lower, -16.4%
- CCc1cc(C(=O)N2CCCC2c2nc(C)c(F)c(O)n2)on1 (configuration not stated) — higher, 4.3%
- O=C(NCCN1CCCCCC1=O)c1n[nH]c(=O)c2ccccc12 — lower, -20.8%
- CCNC(=O)N1CCC(NC(=O)NCCCc2cccc(F)c2)C1 (configuration not stated) — lower, -4.92%
- N#Cc1cc(NC(=O)c2ccncc2)ccc1N1CCC(O)CC1 — lower, -3.68%
- c1nc(N2CCOCC2)nc2c1COCC21CCN(CC2CC2)C1 (configuration not stated) — lower, -6.25%
- COc1ccc(OC2CCN(Cc3ccn(C)c(=O)c3)CC2)cc1 — higher, 0.479%
- Cc1ccc(N2CCCC(c3[nH]ncc3Cc3ccccc3)C2)nn1 (configuration not stated) — higher, 7.65%
- Cc1nnc(NCCn2nc(C)c(Cl)c2C)o1 — lower, -6.66%
- CNC(=O)Cc1noc(Cc2cccc(Cl)c2)n1 — lower, -12.1%
- CC(=O)N1CCCN(C(=O)NCC2(c3cccs3)CCCC2)CC1 — lower, -4.55%
- CC(C)OCc1cccc(NC(=O)N(C)Cc2ncnn2C)c1 — lower, -9.1%
- COCCN1CC[C@@H]2OC(COCC(=O)N3CCCC3)CC[C@@H]21 (some centres not stated) — lower, -3.03%
- CCc1ccc(C2CC(=O)Nc3n[nH]cc32)o1 (configuration not stated) — higher, 0.796%
- COCCN1C[C@H]2CC[C@@H]1CN(C(=O)CCn1cc(Cl)cn1)C2 — lower, -10.6%
- c1cnc(N2CCO[C@H]3CN(Cc4c[nH]cn4)C[C@H]32)cn1 — lower, -5.79%
- Cc1nn(C)c(C)c1CC(=O)N1CCc2nnc(N(C)C)cc2C1 — lower, -5.78%
- c1cnc(NCC2Cn3nnc(-c4ccsc4)c3CO2)nc1 (configuration not stated) — lower, -8.81%
- Cn1cc(C2(C)CN(c3ncccc3C#N)CCO2)cn1 (configuration not stated) — higher, 3.03%
- COc1ccc(CNC(C)c2ccc(Cl)cc2)c(OC)c1OC (configuration not stated) — higher, 13.3%
- CN1CCN(CC2CC2)C(=O)C12CCN(c1nccs1)CC2 — higher, 7.83%
- CC(=O)c1ccc(N2CCC3(CCC(=O)N(CCCO)C3)CC2)nc1 — higher, 3.25%
- O=C(CCCn1cncn1)N1CCCC1c1nc(-c2ccccc2)no1 (configuration not stated) — higher, -1.82%
- CSCCC(NC(=O)c1nc(SC)ncc1Cl)C(=O)O (configuration not stated) — higher, -0.19%
- Cc1cc(CN2C[C@H]3CCC[C@@]3(COCC(=O)N3CCCC3)C2)no1 — lower, -4.89%
- COc1ncc(-c2nccn2CCN(C)C)cn1 — higher, 9.94%
- CNC(=O)CN1CCOCC2(CCCN(Cc3cccnc3)C2)C1 (configuration not stated) — higher, 4.24%
